Laboratory results as given in the supplement of paper PMC11061612.

Experiments:
Test in all cases: combination Emax (second highest fraction inhibited in the dose matrix, 72 h); higher = more inhibition; extreme values may be limits of the assay
[1] = test system: NCI-N87 (Gastric Carcinoma)
Method in brief: (§1)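 Cell lines in DMEM/F12 or RPMI with 10% FBS were plated in 1536-well plates, held 24 hours at 37°C, 5% CO2, then given two-drug dose matrices for 72 hours (DMSO typically 0.2%). Viability was read by CellTiter-Glo 2.0 luminescence and scaled as inhibition from 0 (vehicle wells) to 1 (blank wells). Combination Emax is the second-highest inhibition in the matrix; Bliss excess is observed combination effect minus expected EA + EB − EA·EB, EA and EB being single-agent effects.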

[2] = test system: DG-75 (Burkitt's Lymphoma)
Method in brief: as §1

[3] = test system: NH-12 (Neuroblastoma)
Method in brief: as §1

[4] = test system: JHH-7 (Hepatocellular Carcinoma)
Method in brief: as §1

[5] = test system: H-EMC-SS (Chondrosarcoma)
Method in brief: as §1

[6] = test system: VMRC-LCD (Lung Adenocarcinoma)
Method in brief: as §1

[7] = test system: KYSE-150 (Esophageal Squamous Cell Carcinoma)
Method in brief: as §1

[8] = test system: EW-3 (Ewing's Sarcoma)
Method in brief: as §1

[9] = test system: SNU-C1 (Colorectal Carcinoma)
Method in brief: as §1

[10] = test system: EW-13 (Ewing's Sarcoma)
Method in brief: as §1

[11] = test system: NCI-H1573 (Lung Adenocarcinoma)
Method in brief: as §1

[12] = test system: TGBC11TKB (Gastric Carcinoma)
Method in brief: as §1

[13] = test system: PF-382 (T-Lymphoblastic Leukemia)
Method in brief: as §1

[14] = test system: KYSE-50 (Esophageal Squamous Cell Carcinoma)
Method in brief: as §1

[15] = test system: NCI-H2405 (Lung Adenocarcinoma)
Method in brief: as §1

[16] = test system: HuP-T3 (Pancreatic Carcinoma)
Method in brief: as §1

[17] = test system: IMR-5 (Neuroblastoma)
Method in brief: as §1

[18] = test system: EMC-BAC-2 (Non-Small Cell Lung Carcinoma)
Method in brief: as §1

[19] = test system: HSC-2 (Oral Cavity Carcinoma)
Method in brief: as §1

[20] = test system: BT-20 (Breast Carcinoma)
Method in brief: as §1

CCc1c2c(nc3ccc(O)cc13)-c1cc3c(c(=O)n1C2)COC(=O)[C@]3(O)CC [SN-38] + O=C(c1cc(Cc2n[nH]c(=O)c3ccccc23)ccc1F)N1CCN(C(=O)C2CC2)CC1 [Olaparib] (first compound max 0.3 µM, 7x7, partner max 10 µM)
combination Emax [1]: 0.722 | combination Emax [2]: 0.852 | combination Emax [3]: 0.903 | combination Emax [4]: 0.289 | combination Emax [5]: 0.676 | combination Emax [6]: 0.121 | combination Emax [7]: 0.728 | combination Emax [8]: 0.884 | combination Emax [9]: 0.349 | combination Emax [10]: 0.811 | combination Emax [11]: 0.187 | combination Emax [12]: 0.792 | combination Emax [13]: 1 | combination Emax [14]: 0.269 | combination Emax [15]: 0.472 | combination Emax [16]: 0.683 | combination Emax [17]: 1 | combination Emax [18]: 0.531 | combination Emax [19]: 0.977 | combination Emax [20]: 0.855
